Assay: method code SF, from DOI: 10.1016/0223-5234(96)88223-7

logP	SMILES
3.42	CCc1ccc(-c2nc3ncccc3[nH]2)cc1
3.42	Cc1ccccc1-c1nc2ccc([N+](=O)[O-])cc2[nH]1
3.02	Cc1ccc(-c2nc3ncccc3[nH]2)cc1
4.82	CC(C)(C)c1ccc(-c2nc3ncccc3[nH]2)cc1
3.02	COc1ccccc1-c1nc2ccccc2[nH]1
5.18	Clc1ccc(Cc2nc3ccc(Cl)cc3[nH]2)cc1
3.48	COc1ccc(Cc2nc3ccc([N+](=O)[O-])cc3[nH]2)cc1
2.95	Clc1ccc(-c2nc3ncccc3[nH]2)cc1
3.67	Cc1ccc(-c2nc3ccccc3[nH]2)cc1
3.78	COc1ccc(-c2nc3ccc(C)cc3[nH]2)c(OC)c1
2.52	Fc1ccc(-c2nc3ncccc3[nH]2)cc1
5.38	Clc1ccc2nc(Cc3ccc(Br)cc3)[nH]c2c1
4.1	Cc1ccc(-c2nc3ccc([N+](=O)[O-])cc3[nH]2)c(C)c1
3.2	Nc1ccc(Cc2nc3ccc(Cl)cc3[nH]2)cc1
5.21	Cc1ccc(Cc2nc3ccc(Cl)cc3[nH]2)cc1
